Holding throughout (assay type): biochemical
One test concerns MYC. Nature of the test: In vitro transcription-translation (IVTT) assay, MYC reporter. The note with it: HeLa S3 lysate, 2 hrs at 30° C. The text has this:
(§1) All reporter constructs have been cloned into the pT7CFE1-CHis plasmid (ThermoFisher #88860) using Gibson assembly procedures (NEB #E2611L). The parental pT7CFE1-CHis plasmid contains an EMCV IRES at the 5′UTR for translation initiation, a multiple-cloning site (MCS) for gene insertion, an optional C-terminal His-epitope tag, and polyA sequence in the 3′UTR to regulate mRNA stability. All reporters are designed to be inserted at the MCS to include a red fluorescent protein (mCherry), P2A self-cleaving peptide which releases the preceding mCherry protein product, and a fusion open reading frame containing a 3×FLAG epitope, a peptide sequence of interest (TEST), and green fluorescent protein (sfGFP).
(§2) Construct Plasmid Preparation: All plasmids are isolated from MACH1 cells (ThermoFisher) grown overnight in ampicillin-containing luria broth, and purified using ZymoPure Express Plasmid Midiprep Kit (Zymo Research). Constructs are sequenced verified and diluted to a working concentration of 110 ng/μL.
(§3) HeLa S3 Lysate Preparation: HeLa S3 cell pellets are acquired from Ipracell/Ipratech (Belgium) and shipped as 4 mL frozen cell pellets on dry ice for storage at −80° C. until use. The procedure for lysate preparation is as follows. Prepare 1× Lysis Buffer, cold and stored on ice:
(§4) Each preparation takes 8 cell pellets (4 ml packed volume each, approximately 1.0×10^9 cells per pellet). Thaw cell pellets from −80° C. on ice for 90 mins. Lay pellets horizontally on top of the ice and rotate every 30 mins to ensure even thawing. Once thawed, add 4 mL of cold lysis buffer to each pellet, and using a serological pipet, gently pipet up and down to break up clumps. Incubate resuspended cells in ice for an additional 30 mins (plunged into ice). During 30 min incubation, rinse and RNase-zap (Ambion) glass dounces (use loose pestle “A”), gently dry and place on ice until needed. Prepare RNase-free Eppendorf tubes for spinning and for batch storage. Add batch labels to 1.5-1.7 mL RNase-free microcentrifuge tubes (labeling scheme below). Each batch will have an extra 1.5-1.7 mL RNase-free microcentrifuge tube for 40 μL of lysate, label the top of this tube (labeling scheme below). After 30 min incubation, transfer all 8 mL of cell pellet to dounce. Cell lysis is complete after douncing 100 times. Aliquot cell lysis into 1.5-1.7 mL temporary-microcentrifuge tubes. Place tubes in centrifuge with “fins” out, and spin at 1,200×g for 5 mins. After the first spin use a 1 mL pipet to resuspend each tube and repeat spin. This acts as an additional lysis step, is more vigorous and increases lysate yield. During second spin get liquid N2 and a fresh conical tube on ice. After spin is complete, transfer supernatant (lysate) from microcentrifuge tubes into the 50 mL conical tube and keep on ice. Repeat steps 10-14 for all other cell pellets until completed. Once all cell lysate has been transferred to the 50 mL conical tube pipet to mix so the solution is homogenous. Transfer 1 mL of lysate into batch-labeled microcentrifuge tubes and flash freeze in liquid nitrogen. Be sure to pipet up and down to mix throughout transfer step. Place all tubes in the […] for long-term storage.
(§5) In vitro transcription-translation assay setup: Each assay includes a master mix containing lysate and shared components, a 96-well plate containing compound titrations for testing, a 96-well DNA plate with reporter constructs to be tested, 96-well skirted PCR plates, and 96-well flat-bottom, black, fluorescent assay plates. […]

The test system of a further test is MCL-1. The experiment in a line: In vitro transcription-translation (IVTT) assay, MCL-1 reporter. The conditions noted are these: HeLa S3 lysate, sfGFP/mCherry ratio, 2 hrs at 30° C.
Text: as §1, §2, §3, §4, §5

In the next test the test system is CCND1. Nature of the test: In vitro transcription-translation (IVTT) assay, CCND1 reporter. The note with it: HeLa S3 lysate, 2 hrs at 30° C.
Text: as §1, §2, §3, §4, §5

Setting [1] is: IVTT assay, MYC reporter, normalized sfGFP/mCherry ratio, half-log dilutions 30 μM-0.1 μM.

For `COc1ccc(C[C@H]2NC[C@H](O)[C@H]2OC(=O)NCc2cc(C(F)(F)F)[nH]n2)cc1` [Cmpd V187861], the IC50 with MYC (sfGFP/mCherry ratio) was greater than 30 µM; with MCL-1, less than 10 µM; in the test with CCND1 (sfGFP/mCherry ratio), 20 to 30 µM. In the case of `COc1ccc(C[C@H]2NC[C@H](O)[C@H]2NC(=O)OCc2ccccc2)cc1` [Cmpd V187864], the IC50 in the test with MYC (sfGFP/mCherry ratio), in the test on MCL-1 and with CCND1 (sfGFP/mCherry ratio) was greater than 30 µM each time.

On to `[H]/N=C(/N)c1cccc(CNC(=O)O[C@@H]2[C@@H](O)CN[C@@H]2Cc2ccc(OC)cc2)c1` [Cmpd V187989], for which the IC50 with MCL-1 and in the test on CCND1 (sfGFP/mCherry ratio) was less than 10 µM each time. Regarding `[H]/N=C(\N)CNC(=O)O[C@@H]1[C@@H](O)CN[C@@H]1Cc1ccc(OC)cc1` [Cmpd V187993], the IC50 in the test with MYC (sfGFP/mCherry ratio), with MCL-1 and in the test on CCND1 (sfGFP/mCherry ratio) was 10 to 20 µM throughout. Consider `COc1ccc(C[C@H]2NC[C@H](O)[C@H]2OC(=O)NC[C@@H]2CNC[C@@H]2O)cc1` [Cmpd V188116], for which the IC50 was 20 to 30 µM in the test on MYC (sfGFP/mCherry ratio), 10 to 20 µM in the test with MCL-1 and greater than 30 µM in the test on CCND1 (sfGFP/mCherry ratio). For the compound `COc1ccc(C[C@H]2NC[C@H](O)[C@H]2OC(=O)NCC2CNC2)cc1` [V187599, (2R,3S,4S)-4-hydroxy-2-[(4-methoxyphenyl)methyl]pyrrolidin-3-yl N-(azetidin-3-ylmethyl)carbamate], the IC50 with MYC (sfGFP/mCherry ratio) is greater than 30 µM; in the test with MCL-1, 10 to 20 µM. Take `COc1ccc(C[C@H]2NC[C@H](O)[C@H]2OC(=O)NCCC2CNC2)cc1` [V187600, (2R,3S,4S)-4-hydroxy-2-[(4-methoxyphenyl)methyl]pyrrolidin-3-yl N-[2-(azetidin-3-yl)ethyl]carbamate]: the results for the IC50 in the test on MYC (sfGFP/mCherry ratio) and in the test with MCL-1 were 10 to 20 µM and less than 10 µM, respectively. For `COc1ccc(C[C@H]2NC[C@H](O)[C@H]2OC(=O)NCC2CC(F)(F)C2)cc1` [V187862, (2R,3S,4S)-4-hydroxy-2-[(4-methoxyphenyl)methyl]pyrrolidin-3-yl N-[(3,3-difluorocyclobutyl)methyl]carbamate], the IC50 in the test on MYC (sfGFP/mCherry ratio), in the test on MCL-1 and with CCND1 (sfGFP/mCherry ratio) was less than 10 µM throughout.

As for `O=C(NCCc1ccncc1)O[C@@H]1[C@@H](O)CN[C@@H]1Cc1ccc(-c2cn(Cc3cn[nH]c3)nn2)cc1` [V187948, (2R,3S,4S)-4-hydroxy-2-({4-[1-(1H-pyrazol-4-ylmethyl)-1,2,3-triazol-4-yl]phenyl}methyl)pyrrolidin-3-yl N-[2-(pyridin-4-yl)ethyl]carbamate], the IC50 with MYC (sfGFP/mCherry ratio), in the test with MCL-1 and with CCND1 (sfGFP/mCherry ratio) was less than 10 µM each time.

On to `O=C(NCCc1ccncc1)O[C@@H]1[C@@H](O)CN[C@@H]1Cc1ccc(-c2cn(-c3ccc(Cl)cc3)nn2)cc1` [V187950, (2R,3S,4S)-2-({4-[1-(4-chlorophenyl)-1,2,3-triazol-4-yl]phenyl}methyl)-4-hydroxypyrrolidin-3-yl N-[2-(pyridin-4-yl)ethyl]carbamate], for which the values for the IC50 in the test with MYC (sfGFP/mCherry ratio), in the test on MCL-1 and in the test on CCND1 (sfGFP/mCherry ratio) were 10 to 20 µM, less than 10 µM and less than 10 µM, respectively. `COc1ccc(C[C@H]2NC[C@H](O)[C@H]2OC(=O)NCC(N)=O)cc1` [V188002, (2R,3S,4S)-4-hydroxy-2-[(4-methoxyphenyl)methyl]pyrrolidin-3-yl N-(carbamoylmethyl)carbamate]: the half-maximal inhibitory concentration (IC50) in the test with MYC (sfGFP/mCherry ratio) is 20 to 30 µM; in the test on MCL-1, less than 10 µM; in the test on CCND1 (sfGFP/mCherry ratio), less than 10 µM. Consider `COc1ccc(C[C@H]2NC[C@H](O)[C@H]2OC(=O)NCCn2cnc3ccccc32)cc1` [V188090, (2R,3S,4S)-4-hydroxy-2-[(4-methoxyphenyl)methyl]pyrrolidin-3-yl N-[2-(1,3-benzodiazol-1-yl)ethyl]carbamate], for which the IC50 in the test with MYC (sfGFP/mCherry ratio) and with CCND1 (sfGFP/mCherry ratio) was greater than 30 µM in each case. For `COc1ccc(C[C@H]2NC[C@H](O)[C@H]2OC(=O)NC[C@@H]2CNC[C@H]2O)cc1` [V188093, (2R,3S,4S)-4-hydroxy-2-[(4-methoxyphenyl)methyl]pyrrolidin-3-yl N-{[(3S,4S)-4-hydroxypyrrolidin-3-yl]methyl}carbamate], the figures for the IC50 in the test with MYC (sfGFP/mCherry ratio) and in the test on CCND1 (sfGFP/mCherry ratio) were 20 to 30 µM and greater than 30 µM, respectively.

For `COc1ccc(C[C@H]2NC[C@H](O)[C@H]2OC(=O)NC[C@@H]2CCN(C)C2)cc1` [V188109, (2R,3S,4S)-4-hydroxy-2-[(4-methoxyphenyl)methyl]pyrrolidin-3-yl N-{[(3S)-1-methylpyrrolidin-3-yl]methyl}carbamate], the results for the 50% inhibitory concentration (IC50) with MYC (sfGFP/mCherry ratio) and with CCND1 (sfGFP/mCherry ratio) were 10 to 20 µM and greater than 30 µM, respectively. For `COc1ccc(C[C@H]2NC[C@H](O)[C@H]2OC(=O)N[C@H](C)c2ccccc2)cc1` [V191970, (2R,3S,4S)-4-hydroxy-2-[(4-methoxyphenyl)methyl]pyrrolidin-3-yl N-[(1R)-1-phenylethyl]carbamate], the concentration for half-maximal inhibition (IC50) in the test on MYC (setting [1]) and with CCND1 (IVTT) was greater than 30 µM each time. Turning to `CNC(=O)O[C@@H]1[C@@H](O)CN[C@@H]1Cc1ccc(-c2cn(-c3cc4ccc(O)cc4oc3=O)nn2)cc1` [V193432, (2R,3S,4S)-4-hydroxy-2-(4-(1-(7-hydroxy-2-oxo-2H-chromen-3-yl)-1H-1,2,3-triazol-4-yl)benzyl)pyrrolidin-3-yl methylcarbamate], in the test on MYC (setting [1]), the concentration for half-maximal inhibition (IC50) is less than 10 µM. Take `O=C(NCC[C@H]1CCCO1)O[C@@H]1[C@@H](O)CN[C@@H]1Cc1ccc(-c2cncs2)cc1` [V193641, (2R,3S,4S)-4-hydroxy-2-(4-(thiazol-5-yl)benzyl)pyrrolidin-3-yl (2-((R)-tetrahydrofuran-2-yl)ethyl)carbamate]: the IC50 in the test with MYC (setting [1]) is less than 10 µM.

As to `O=C(NCC[C@@H]1CCOC1)O[C@@H]1[C@@H](O)CN[C@@H]1Cc1ccc(-c2cncs2)cc1` [V193642, (2R,3S,4S)-4-hydroxy-2-(4-(thiazol-5-yl)benzyl)pyrrolidin-3-yl (2-((R)-tetrahydrofuran-3-yl)ethyl)carbamate], in the test with MYC (setting [1]), the IC50 is less than 10 µM.

Consider `O=C(NCC[C@H]1CCOC1)O[C@@H]1[C@@H](O)CN[C@@H]1Cc1ccc(-c2cncs2)cc1` [V193643, (2R,3S,4S)-4-hydroxy-2-(4-(thiazol-5-yl)benzyl)pyrrolidin-3-yl (2-((S)-tetrahydrofuran-3-yl)ethyl)carbamate], for which the IC50 with MYC (setting [1]) was less than 10 µM. In the case of `O=C(NCC[C@H]1C[C@@H](O)C1)O[C@@H]1[C@@H](O)CN[C@@H]1Cc1ccc(-c2cncs2)cc1` [V193644, (2R,3S,4S)-4-hydroxy-2-(4-(thiazol-5-yl)benzyl)pyrrolidin-3-yl (2-((1s,3S)-3-hydroxycyclobutyl)ethyl)carbamate], in the test on MYC (setting [1]), the IC50 is less than 10 µM. Same read-out and setting: the value for `O=C(NCC[C@H]1C[C@H](O)C1)O[C@@H]1[C@@H](O)CN[C@@H]1Cc1ccc(-c2cncs2)cc1` [V193645, (2R,3S,4S)-4-hydroxy-2-(4-(thiazol-5-yl)benzyl)pyrrolidin-3-yl (2-((1r,3R)-3-hydroxycyclobutyl)ethyl)carbamate] was less than 10 µM; that for `O=C(NCCc1cn[nH]c1)O[C@@H]1[C@@H](O)CN[C@@H]1Cc1ccc(-c2cncs2)cc1` [V193646, (2R,3S,4S)-4-hydroxy-2-(4-(thiazol-5-yl)benzyl)pyrrolidin-3-yl (2-(1H-pyrazol-4-yl)ethyl)carbamate] was less than 10 µM. For `O=C(NCCc1cnoc1)O[C@@H]1[C@@H](O)CN[C@@H]1Cc1ccc(-c2cncs2)cc1` [V193647, (2R,3S,4S)-4-hydroxy-2-(4-(thiazol-5-yl)benzyl)pyrrolidin-3-yl (2-(isoxazol-4-yl)ethyl)carbamate], in the test with MYC (setting [1]), the IC50 was less than 10 µM. On to `CC(C)CCNC(=O)O[C@@H]1[C@@H](O)CN[C@@H]1Cc1ccc(-c2cncs2)cc1` [V193648, (2R,3S,4S)-4-hydroxy-2-(4-(thiazol-5-yl)benzyl)pyrrolidin-3-yl isopentylcarbamate], for which, in the test on MYC (setting [1]), the IC50 was less than 10 µM.

The IC50 is the midpoint of a concentration-inhibition curve.

(Values after patent US20250129021A1, “SMALL MOLECULE PROTEIN SYNTHESIS MODULATORS” (Interdict Bio, Inc., priority 2023, published 2025).)
